Laboratory results taken from PMC10675077, “Antimicrobial Properties of New Polyamines Conjugated with Oxygen-Containing Aromatic Functional Groups” (Molecules, 2023).
Converted amounts (≈) assume the structure as drawn. Read-outs that look alike come from different tables or passages of the source. Marks after values point to notes of the source that are not given here.

Experiments:
[1] = Potentiometric titrations in water (protonation constants); format: physicochemical; settings: for log β (cumulative protonation constant): calculated as log β = ∑j log KHjL; for n, average number of positive charges at pH 7.4: calculated from protonation constants
Protocol: The potentiometric titrations were carried out at 298.1 ± 0.1 K using NaCl 0.15 M as a supporting electrolyte. The experimental procedure (burette, potentiometer, cell, stirrer, microcomputer, etc.) has been fully described elsewhere. The acquisition of the EMF data was performed with the computer program PASAT [50]. The reference electrode was a Ag/AgCl electrode in a saturated KCl solution. The glass electrode was calibrated as a hydrogen-ion concentration probe via the titration of previously standardised amounts of HCl with CO2-free NaOH solutions and the equivalent point determined using the Gran method, which provides the standard potential, E^θ′, and the ionic product of water (pKw = 13.73(1)).
The computer program […] was used to calculate the protonation constants. The pH range investigated was 2.5–11.0, and the concentration of the ligands ranged from 5 × 10^−4 to 5 × 10^−[…]. The different titration curves for each system (at least two) were treated either as a single set or as separated curves without significant variations in the values of the stability constants. Finally, the sets of data were merged and treated simultaneously to give the final stability constants.

[2] = test system: Staphylococcus aureus BHI; experiment: MIC, microdilution in culture medium, S. aureus; format: cell-based; settings: 20 h, 37 °C, average of at least three experiments; for MIC: Staphylococcus aureus, read-out: MIC, Bacteria, S. aureus BHI
Excerpt: (§1) The microorganisms used for the susceptibility tests were the bacteria Escherichia coli JM101 and Staphylococcus aureus BHI, and the yeast Saccharomyces cerevisiae strains BY4741 (MAT a his3Δ1 leu2Δ0 met15Δ0 ura3Δ0 (EUROSCARF)) carrying YEplac195 (from EUROSCARF) or YEPlac195-PDR5 (provided by Ayse Banu Demir, Izmir University of Economics, Turkey) plasmids.
(§2) Bacterial strains were usually maintained and grown in an LB medium (0.5% (w/v) yeast extract, 1% (w/v) bactotryptone, and 1% (w/v) NaCl) at 37 °C. For MIC (minimal inhibitory concentration) and MMC (minimal microbicidal concentration) assays, and for the determination of synergies, overnight growth was carried out in 2% (w/v) bactopeptone (BP), and then the cultures were diluted and incubated for several hours in 2% (w/v) BP for ensuring logarithmic growth. Yeast strains were grown in an SC-ura medium (0.17% (w/v) yeast nitrogen base without amino acids and ammonium sulphate, 0.2% (w/v) drop-out without uracil, 0.5% (w/v) (NH4)2SO4, and 2% (w/v) glucose) at 30 °C. Liquid cultures were incubated with shaking (200 rpm). Solid media also contained 2% (w/v) agar.
(§3) For the analysis of the antimicrobial activity, the strategies and indications of Cushnie et al. were considered. The standardised method of microdilution in a culture medium was followed to determine the MIC [55]. In bacterial strains, serial dilutions of the compounds to be tested and the control antibiotics were prepared in phosphate buffer (20 mM, pH 7.4, 0.5 mL) and were mixed with a suspension of bacterial cells in a logarithmic growth phase (in 1% BP, 0.5 mL). The final OD600 of the whole solutions were 0.004 and 0.008 for E. coli and S. aureus cultures, respectively. After 20 h of incubation at 37 °C with shaking, the MIC was determined as the lowest concentration of each compound in which no visible bacterial growth was observed.

Escherichia coli JM101 = experiment: MIC, microdilution in culture medium, E. coli; format: cell-based; settings: 20 h, 37 °C, average of at least three experiments; for MIC: Escherichia coli, JM101, read-out: MIC, Bacteria, E. coli JM101
Excerpt: as §1, §2, §3

[3] = test system: Yeast (S. cerevisiae strains); experiment: MIC, yeast (strain not specified); format: cell-based, Saccharomyces cerevisiae; settings: for MIC: Saccharomyces cerevisiae, read-out: MIC Yeast
Protocol: The determination of the MIC for yeast strains was carried out following a similar procedure to that of the polyamines and antifungal reference agents: Serial dilutions of each one in phosphate buffer (20 mM, pH 7.4, 0.5 mL) were prepared and mixed with a suspension of yeast cells (OD600 0.04 in SC-ura 2X (VWR, Atlanta, GA, USA), 0.5 mL). […] Experiments were carried out at least three times in all cases.

S. aureus BHI = experiment: Minimal bactericidal concentration, S. aureus; format: cell-based, Staphylococcus aureus; settings: overnight incubation, plating on LB; for MBC: Staphylococcus aureus
Protocol: (§4) Once the MIC was known, the samples were prepared as described in the previous section with polyamine concentrations corresponding to the MIC and half, double, and four times its value. After overnight incubation with the microorganisms, 30 μL of a ten-fold dilution of each one was spread in LB (in the case of bacterial strains) or SC-ura (for yeast strains) plates. They were incubated for 20 h at 37 °C (bacteria) or 48 h at 30 °C (yeasts), and the level of growth was determined. […] Experiments were carried out at least three times.

BY4741/YEplac195 = experiment: Checkerboard titration synergy, BY4741/YEplac195; format: cell-based, Saccharomyces cerevisiae; settings: synergistic when FICI ≤0.5
Protocol: The combined antimicrobial activity of the test compounds with the antibacterial or antifungal control agents was performed under the same conditions used for the MIC determination and following the procedures described by Carton Herrán, Reis de Sá et al. and Zharkova et al.. For each experiment, 16 samples (4 rows × 4 columns) in a total volume of 0.5 mL were prepared in tubes using an array of combinations between the MIC value and 0 μg/mL of the compound to be tested in each row, and between the MIC value and 0 μg/mL of the reference drug in each column. In this way, a variety of mixtures with different concentrations of them alone or in combination was obtained. Briefly, 0.5 mL of a microorganism culture was added to each one of the samples, and after incubation for 24 h with shaking at the appropriate temperature (37 °C or 30 °C), the tubs were visually inspected, and the OD600 was measured. From this information, the fractional inhibitory concentration index (FICI) was calculated according to the formula FIC index = ([A]/[CMI A]) + ([B]/[CMI B]), where [A] and [B] are respective concentrations of tested polyamine and reference drug in their combination effectively inhibiting the growth of bacteria or yeast, and [MIC A] and [MIC B] are the individual MICs of the tested polyamine and reference drug when they are used alone. An interaction is considered synergistic when the FICI value is ≤0.5 [41, 42].
To confirm the data obtained in the checkerboard assay, 30 μL of a ten-fold dilution of the tubes containing concentrations of half of the MIC of each one of the compounds alone (polyamine to be tested and reference drug) and one fourth of the MIC of each one in combination were also spread in LB or SC-ura plates (according to the microorganism considered in each case) and incubated at 37 °C or 30 °C. The visualisation of these plates was performed after 24 or 48 h, respectively. All these experiments were carried out in triplicate.

S. cerevisiae strains = experiment: Minimal fungicidal concentration, S. cerevisiae strains; format: cell-based, Saccharomyces cerevisiae; settings: fungistatic = growth on SC-ura plates after incubation at four times the MIC
Protocol: as §4

[4] = 298 K, 0.15 mol/dm^3 NaCl, error in last figure in parentheses
[5] = yeast strain not specified (Tables 5 and 10)

Row | Compound | Stepwise protonation constant (log K), H2L + H ⇄ H3L [1, 4] | Stepwise protonation constant (log K), L + H ⇄ HL [1, 4] | Stepwise protonation constant (log K), LH + H ⇄ H2L [1, 4] | log β (cumulative protonation constant) ([1]; 298 K, 0.15 mol/dm^3 NaCl) | n, average number of positive charges at pH 7.4 [1] | MIC [2] [µg/mL] | MIC (Escherichia coli JM101) [µg/mL] | MIC [3, 5] [µg/mL] | MBC (S. aureus BHI) [µg/mL] | Synergy with Amphotericin B (BY4741/YEplac195) | Synergy with Cycloheximide (BY4741/YEplac195) | Synergy with Fluconazole (BY4741/YEplac195) | Minimal fungicidal concentration (MFC), S. cerevisiae Strains (S. cerevisiae strains) | also measured
1 | c1cc2nc(c1)CNCCN(CCNCc1ccc3c(c1)CCO3)CCNC2 [Compound 8a, 2-(3,6,9-triaza-1(2,6)-pyridinacyclodecaphane-6-yl)-N-((2,3-dihydrobenzofuran-5-yl)methyl)ethan-1-amine] | 7.296 (4) | 9.943 (3) | 8.736 (3) | 26.17 | 2.4 | 100 | 15 | 400 (≈ 1050 µM) | 400 (≈ 1050 µM) |  |  |  |  | 
2 | c1cc2nc(c1)CNCCN(CCNCc1ccc3c(c1)OCO3)CCNC2 [Compound 5a, 2-(3,6,9-triaza-1(2,6)-pyridinacyclodecaphane-6-yl)-N-(benzo[d][1,3]dioxol-5-ylmethyl)ethan-1-amine] | 7.30 (1) | 10.48 (1) | 8.78 (1) | 26.56 | 2.4 | 35 | 5 | 60 (≈ 156 µM) | 70 (≈ 183 µM) | positive results and + | Sinergy and positive results and + | Sinergy and synergic and + | Fungistatic | 
3 | Oc1ccccc1CNCCN1CCNCc2cccc(n2)CNCC1 [Compound 6a] |  |  |  |  | 1.91 | 40 | 2.5 | 45 (≈ 127 µM) | 160 (≈ 450 µM) | positive results and + | positive results and + | - | Fungistatic | 
4 | N^1-(benzo[d][1,3]dioxol-5-ylmethyl)-N^3-(2-((2-((3-((benzo[d][1,3]dioxol-5-ylmethyl)amino)propyl)amino)ethyl)(2-((3-(((2,3-dihydrobenzofuran-6-yl)methyl)amino)propyl)amino)ethyl)amino)ethyl)propane-1,3-diamine [Compound 4a] | 9.12 (1) | 10.95 (1) | 9.63 (1) | 51.60 | 4.5 |  |  |  |  | positive results and + | Sinergy and positive results and + | Sinergy and synergic and + | Fungistatic | Stepwise protonation constant (log K), H3L + H ⇄ H4L [1, 4]: 8.07 (1); Stepwise protonation constant (log K), H4L + H ⇄ H5L [1, 4]: 7.48 (1); Stepwise protonation constant (log K), H5L + H ⇄ H6L [1, 4]: 6.35 (2); MIC, Bacteria, S. aureus BHI [2]: 4 µg/mL; MIC, Bacteria, E. coli JM101 (Escherichia coli JM101): 5 µg/mL; MIC Yeast [3, 5]: 150 µg/mL; Minimal bactericidal concentration (MBC), S. aureus BHI (S. aureus BHI): 8 ^a µg/mL
5 | Oc1ccc(CNCCN2CCNCc3cccc(n3)CNCC2)cc1 [Compound 7a] |  |  |  | 35.48 | 2.4 | 135 | 13 |  |  |  |  |  |  | MIC [3]: 295 µg/mL (≈ 830 µM)
